Measured values: patent US20260232767A1, “INTERLEUKIN-23 RECEPTOR ANTAGONIST PEPTIDES FOR USE IN THE TREATMENT OF PSORIASIS” (Janssen Pharmaceutica NV, priority 2023, published 2026)

Test system: subjects with moderate-to-severe plaque psoriasis
Experiment: PSSD symptom and sign scores, Example 2
Format: in vivo, human
Conditions: for Change from Baseline in PSSD Sign Score, LSMean / Change from Baseline in PSSD Symptom Score, LSMean: MMRM

SMILES: CC(=O)NCCCC[C@@H]1NC(=O)[C@H](Cc2c[nH]c3c(C)cccc23)NC(=O)[C@H]([C@@H](C)O)NC(=O)[C@H](CC(N)=O)NC(=O)[C@@H](NC(C)=O)C(C)(C)SSC(C)(C)[C@@H](C(=O)N[C@@H](Cc2ccc(OCCN)cc2)C(=O)N[C@@H](Cc2ccc3ccccc3c2)C(=O)NC2(C(=O)N[C@@H](CCC(=O)O)C(=O)N[C@@H](CC(N)=O)C(=O)N[C@@H](Cc3cccnc3)C(=O)N(C)CC(N)=O)CCOCC2)NC1=O [IL-23 receptor antagonist peptide, Ac-[Pen]*-N-T-[W(7-Me)]-[Lys(Ac)]-[Pen]*-Phe[4-(2-aminoethoxy)]-[2-Nal]-[THP]-E-N-[3-Pal]-Sarc-NH2 (*[Pen]-[Pen]* formdisulfidebond)]
- Change from Baseline in PSSD Symptom Score, Mean (Week 32, 100 mg QD): −28.0
- Change from Baseline in PSSD Symptom Score, Median (Week 32, 100 mg QD): −25.0
- Subjects Achieving PSSD Sign Score 0 (%) (Week 32, 100 mg QD, Baseline Sign Score ≥1, N=43): (14.0%)
- Subjects Achieving PSSD Symptom Score 0 (%) (Week 32, 100 mg QD, Baseline Symptom Score ≥1, N=43): (18.6%)
- Change from Baseline in PSSD Sign Score, LSMean (Week 32, 100 mg QD): −45.8
- Change from Baseline in PSSD Symptom Score, LSMean (Week 32, 100 mg QD): −36.4
- Change from Baseline in PSSD Sign Score, Mean (Week 32, Placebo → 100 mg QD): −42.3
- Change from Baseline in PSSD Sign Score, Median (Week 32, Placebo → 100 mg QD): −45.0
- Change from Baseline in PSSD Symptom Score, Mean (Week 32, Placebo → 100 mg QD): −31.9
- Change from Baseline in PSSD Symptom Score, Median (Week 32, Placebo → 100 mg QD): −36.0
- Subjects Achieving PSSD Sign Score 0 (%) (Week 32, Placebo → 100 mg QD, Baseline Sign Score ≥1, crossed-over subjects only): (17.1%)
- Subjects Achieving PSSD Symptom Score 0 (%) (Week 32, Placebo → 100 mg QD, Baseline Symptom Score ≥1, crossed-over subjects only): (20.0%)
- Change from Baseline in PSSD Sign Score, LSMean (Week 32, Placebo → 100 mg QD): −41.8
- Change from Baseline in PSSD Symptom Score, LSMean (Week 32, Placebo → 100 mg QD): −33.9
- Change from Baseline in PSSD Sign Score, Mean (Week 40, 25 mg BID): −34.1
- Change from Baseline in PSSD Sign Score, Median (Week 40, 25 mg BID): −34.0
- Change from Baseline in PSSD Symptom Score, Mean (Week 40, 25 mg BID): −30.0
- Change from Baseline in PSSD Symptom Score, Median (Week 40, 25 mg BID): −32.0
- Subjects Achieving PSSD Sign Score 0 (%) (Week 40, 25 mg BID, Baseline Sign Score ≥1, N=41): (4.9%)
- Subjects Achieving PSSD Symptom Score 0 (%) (Week 40, 25 mg BID, Baseline Symptom Score ≥1, N=41): (9.8%)
- Change from Baseline in PSSD Sign Score, LSMean (Week 40, 25 mg BID): −34.9
- Change from Baseline in PSSD Symptom Score, LSMean (Week 40, 25 mg BID): −30.5
- Change from Baseline in PSSD Sign Score, Mean (Week 40, 25 mg QD): −36.9
- Change from Baseline in PSSD Sign Score, Median (Week 40, 25 mg QD): −36.0
- Change from Baseline in PSSD Symptom Score, Mean (Week 40, 25 mg QD): −33.9
- Change from Baseline in PSSD Symptom Score, Median (Week 40, 25 mg QD): −35.0
- Subjects Achieving PSSD Sign Score 0 (%) (Week 40, 25 mg QD, Baseline Sign Score ≥1, N=43): (11.6%)
- Subjects Achieving PSSD Symptom Score 0 (%) (Week 40, 25 mg QD, Baseline Symptom Score ≥1, N=43): (20.9%)
- Change from Baseline in PSSD Sign Score, LSMean (Week 40, 25 mg QD): −29.4
- Change from Baseline in PSSD Symptom Score, LSMean (Week 40, 25 mg QD): −25.9
- Change from Baseline in PSSD Sign Score, Mean (Week 40, 50 mg QD): −39.6
- Change from Baseline in PSSD Sign Score, Median (Week 40, 50 mg QD): −42.0
- Change from Baseline in PSSD Symptom Score, Mean (Week 40, 50 mg QD): −34.9
- Change from Baseline in PSSD Symptom Score, Median (Week 40, 50 mg QD): −32.0
- Subjects Achieving PSSD Sign Score 0 (%) (Week 40, 50 mg QD, Baseline Sign Score ≥1, N=43): (9.3%)
- Subjects Achieving PSSD Symptom Score 0 (%) (Week 40, 50 mg QD, Baseline Symptom Score ≥1, N=42): (23.8%)
- Change from Baseline in PSSD Sign Score, LSMean (Week 40, 50 mg QD): −39.5
- Change from Baseline in PSSD Symptom Score, LSMean (Week 40, 50 mg QD): −32.7
- Change from Baseline in PSSD Sign Score, Mean (Week 40, 100 mg BID): −52.4
- Change from Baseline in PSSD Sign Score, Median (Week 40, 100 mg BID): −54.5
- Change from Baseline in PSSD Symptom Score, Mean (Week 40, 100 mg BID): −47.5
- Change from Baseline in PSSD Symptom Score, Median (Week 40, 100 mg BID): −49.5
- Subjects Achieving PSSD Sign Score 0 (%) (Week 40, 100 mg BID, Baseline Sign Score ≥1, N=42): (19.0%)
- Subjects Achieving PSSD Symptom Score 0 (%) (Week 40, 100 mg BID, Baseline Symptom Score ≥1, N=42): (28.6%)
- Change from Baseline in PSSD Sign Score, LSMean (Week 40, 100 mg BID): −51.4
- Change from Baseline in PSSD Symptom Score, LSMean (Week 40, 100 mg BID): −43.5
- Change from Baseline in PSSD Sign Score, Mean (Week 40, 100 mg QD): −42.4
- Change from Baseline in PSSD Sign Score, Median (Week 40, 100 mg QD): −43.0
- Change from Baseline in PSSD Symptom Score, Mean (Week 40, 100 mg QD): −28.2
- Change from Baseline in PSSD Symptom Score, Median (Week 40, 100 mg QD): −24.0
- Subjects Achieving PSSD Sign Score 0 (%) (Week 40, 100 mg QD, Baseline Sign Score ≥1, N=43): (18.6%)
- Subjects Achieving PSSD Symptom Score 0 (%) (Week 40, 100 mg QD, Baseline Symptom Score ≥1, N=43): (18.6%)
- Change from Baseline in PSSD Sign Score, LSMean (Week 40, 100 mg QD): −45.6
- Change from Baseline in PSSD Symptom Score, LSMean (Week 40, 100 mg QD): −36.1
- Change from Baseline in PSSD Sign Score, Mean (Week 40, Placebo → 100 mg QD): −36.6
- Change from Baseline in PSSD Sign Score, Median (Week 40, Placebo → 100 mg QD): −48.5
- Change from Baseline in PSSD Symptom Score, Mean (Week 40, Placebo → 100 mg QD): −23.8
- Change from Baseline in PSSD Symptom Score, Median (Week 40, Placebo → 100 mg QD): −24.0
- Subjects Achieving PSSD Sign Score 0 (%) (Week 40, Placebo → 100 mg QD, Baseline Sign Score ≥1, crossed-over subjects only): (14.3%)
- Subjects Achieving PSSD Symptom Score 0 (%) (Week 40, Placebo → 100 mg QD, Baseline Symptom Score ≥1, crossed-over subjects only): (25.7%)
- Change from Baseline in PSSD Sign Score, LSMean (Week 40, Placebo → 100 mg QD): −36.9
- Change from Baseline in PSSD Symptom Score, LSMean (Week 40, Placebo → 100 mg QD): −27.0
- Change from Baseline in PSSD Sign Score, Mean (Week 52, 25 mg BID): −36.6
- Change from Baseline in PSSD Sign Score, Median (Week 52, 25 mg BID): −38.5
- Change from Baseline in PSSD Symptom Score, Mean (Week 52, 25 mg BID): −31.2
- Change from Baseline in PSSD Symptom Score, Median (Week 52, 25 mg BID): −27.0
- Subjects Achieving PSSD Sign Score 0 (%) (Week 52, 25 mg BID, Baseline Sign Score ≥1, N=41): (12.2%)
- Subjects Achieving PSSD Symptom Score 0 (%) (Week 52, 25 mg BID, Baseline Symptom Score ≥1, N=41): (17.1%)
- Change from Baseline in PSSD Sign Score, LSMean (Week 52, 25 mg BID): −37.2
- Change from Baseline in PSSD Symptom Score, LSMean (Week 52, 25 mg BID): −31.4
- Change from Baseline in PSSD Sign Score, Mean (Week 52, 25 mg QD): −35.2
- Change from Baseline in PSSD Sign Score, Median (Week 52, 25 mg QD): −32.5
- Change from Baseline in PSSD Symptom Score, Mean (Week 52, 25 mg QD): −30.1
- Change from Baseline in PSSD Symptom Score, Median (Week 52, 25 mg QD): −35.0
- Subjects Achieving PSSD Sign Score 0 (%) (Week 52, 25 mg QD, Baseline Sign Score ≥1, N=43): (16.3%)
- Subjects Achieving PSSD Symptom Score 0 (%) (Week 52, 25 mg QD, Baseline Symptom Score ≥1, N=43): (18.6%)
- Change from Baseline in PSSD Sign Score, LSMean (Week 52, 25 mg QD): −27.9
- Change from Baseline in PSSD Symptom Score, LSMean (Week 52, 25 mg QD): −22.3
- Change from Baseline in PSSD Sign Score, Mean (Week 52, 50 mg QD): −39.2
- Change from Baseline in PSSD Sign Score, Median (Week 52, 50 mg QD): −45.0
- Change from Baseline in PSSD Symptom Score, Mean (Week 52, 50 mg QD): −35.2
- Change from Baseline in PSSD Symptom Score, Median (Week 52, 50 mg QD): −34.0
- Subjects Achieving PSSD Sign Score 0 (%) (Week 52, 50 mg QD, Baseline Sign Score ≥1, N=43): (11.6%)
- Subjects Achieving PSSD Symptom Score 0 (%) (Week 52, 50 mg QD, Baseline Symptom Score ≥1, N=42): (21.4%)
- Change from Baseline in PSSD Sign Score, LSMean (Week 52, 50 mg QD): −39.0
- Change from Baseline in PSSD Symptom Score, LSMean (Week 52, 50 mg QD): −33.0
- Change from Baseline in PSSD Sign Score, Mean (Week 52, 100 mg BID): −53.1
- Change from Baseline in PSSD Sign Score, Median (Week 52, 100 mg BID): −55.0
- Change from Baseline in PSSD Symptom Score, Mean (Week 52, 100 mg BID): −47.7
- Change from Baseline in PSSD Symptom Score, Median (Week 52, 100 mg BID): −53.0
- Subjects Achieving PSSD Sign Score 0 (%) (Week 52, 100 mg BID, Baseline Sign Score ≥1, N=42): (16.7%)
- Subjects Achieving PSSD Symptom Score 0 (%) (Week 52, 100 mg BID, Baseline Symptom Score ≥1, N=42): (26.2%)
- Change from Baseline in PSSD Sign Score, LSMean (Week 52, 100 mg BID): −51.9
- Change from Baseline in PSSD Symptom Score, LSMean (Week 52, 100 mg BID): −44.0
- Change from Baseline in PSSD Sign Score, Mean (Week 52, 100 mg QD): −43.1
- Change from Baseline in PSSD Sign Score, Median (Week 52, 100 mg QD): −43.0
- Change from Baseline in PSSD Symptom Score, Mean (Week 52, 100 mg QD): −29.4
- Change from Baseline in PSSD Symptom Score, Median (Week 52, 100 mg QD): −28.0
- Subjects Achieving PSSD Sign Score 0 (%) (Week 52, 100 mg QD, Baseline Sign Score ≥1, N=43): (14.0%)
- Subjects Achieving PSSD Symptom Score 0 (%) (Week 52, 100 mg QD, Baseline Symptom Score ≥1, N=43): (30.2%)
- Change from Baseline in PSSD Sign Score, LSMean (Week 52, 100 mg QD): −45.8
- Change from Baseline in PSSD Symptom Score, LSMean (Week 52, 100 mg QD): −36.5
- Change from Baseline in PSSD Sign Score, Mean (Week 52, Placebo → 100 mg QD): −42.8
- Change from Baseline in PSSD Sign Score, Median (Week 52, Placebo → 100 mg QD): −48.5
- Change from Baseline in PSSD Symptom Score, Mean (Week 52, Placebo → 100 mg QD): −29.5
- Change from Baseline in PSSD Symptom Score, Median (Week 52, Placebo → 100 mg QD): −30.0
- Subjects Achieving PSSD Sign Score 0 (%) (Week 52, Placebo → 100 mg QD, Baseline Sign Score ≥1, crossed-over subjects only): (22.9%)
- Subjects Achieving PSSD Symptom Score 0 (%) (Week 52, Placebo → 100 mg QD, Baseline Symptom Score ≥1, crossed-over subjects only): (34.3%)
- Change from Baseline in PSSD Sign Score, LSMean (Week 52, Placebo → 100 mg QD): −43.1
- Change from Baseline in PSSD Symptom Score, LSMean (Week 52, Placebo → 100 mg QD): −32.4
